Source: ChEMBL document CHEMBL4616678, “Design, Synthesis, and Physicochemical and Pharmacological Profiling of 7-Hydroxy-5-oxopyrazolo[4,3-b]pyridine-6-carboxamide Derivatives with Antiosteoarthritic Activity In Vivo” (J Med Chem, 2020)
In brackets after ≈: the same amount, converted by molar mass. Activity calls are given as the source filed them.

Columns and labels:
NIH3T3 = test: Cytotoxicity against mouse NIH/3T3 assessed as reduction in cell viability after 1 to 14 days by Neutral red dye-based UV-visible spectrophotometer analysis; type: functional
Cannabinoid receptor 1 = Cannabinoid receptor 1 (Homo sapiens, UniProt P21554); test: Displacement of [3H]-CP-55,940 from recombinant human CB1R expressed in HEK293 cell membranes
[1] = Kinetic solubility of the compound at pH 7.4 by HPLC-UV method; type: physicochemical; conditions: buffer, read-out: Kinetic_solubility
Cannabinoid receptor 2 [2] = molecular target: T1, Cannabinoid receptor 2 (Homo sapiens, UniProt P34972); test: Inverse agonist activity at recombinant human CB2R expressed in CHOK1 cells assessed as increase in NKH477-stimulated intracellular cAMP levels after 30 mins by chemiluminescent based cAMP Hunter assay; type: functional, cell-based, CHO-K1
Cannabinoid receptor 2 [3] = molecular target: T1, Cannabinoid receptor 2; test: Displacement of [3H]-CP-55,940 from recombinant human CB2R expressed in HEK293 cell membranes
[4] = Cytotoxicity against human NHAC-kn assessed as reduction in cell viability after 1 to 14 days by Neutral red dye-based UV-visible spectrophotometer analysis; type: functional
[5] = Induction of extracellular matrix production in human NHAC-kn cells assessed as HYP level at 7.5 uM after 14 days by UV-visible spectrophotometer analysis (reference value: 14.2 +/- 0.4 ug); type: functional
[6] = Induction of extracellular matrix production in human NHAC-kn cells assessed as sGAG/HYP level at 7.5 uM after 1 day by UV-visible spectrophotometer analysis (reference value: 0.9 +/- 0.1 ug); type: functional
[7] = Induction of extracellular matrix production in human NHAC-kn cells assessed as HYP level at 7.5 uM after 7 days by UV-visible spectrophotometer analysis (reference value: 13.2 +/- 0.3 ug); type: functional
[8] = Kinetic solubility of the compound at pH 1.0 by HPLC-UV method; type: physicochemical; conditions: buffer, read-out: Kinetic_solubility
Rattus norvegicus [9] = test: Analgesic activity in MIA induced Wistar rat assessed as hind limb withdrawal threshold at 1 mg/kg, ip injection after 300 mins in presence of AM-630 by PAM test; type: functional, organism-based
Cannabinoid receptor 2 [10] = molecular target: T1, Cannabinoid receptor 2; test: Agonist activity at recombinant human CB2R expressed in CHOK1 cells assessed as inhibition of NKH477-stimulated intracellular cAMP levels after 30 mins by chemiluminescent detection based cAMP Hunter assay; type: functional, cell-based, CHO-K1
[11] = Induction of extracellular matrix production in human NHAC-kn cells assessed as sGAG level at 7.5 uM after 7 days by UV-visible spectrophotometer analysis (reference value: 11.2 +/- 0.4 ug); type: functional
[12] = Induction of extracellular matrix production in human NHAC-kn cells assessed as sGAG/HYP level at 7.5 uM after 14 days by UV-visible spectrophotometer analysis (reference value: 0.9 +/- 0.2 ug); type: functional
Rattus norvegicus [13] = test: Analgesic activity in MIA induced Wistar rat assessed as hind limb withdrawal threshold at 1 mg/kg, ip injection after 300 mins by PAM test; type: functional, organism-based
Rattus norvegicus [14] = test: Analgesic activity in MIA induced Wistar rat assessed as differences in forces applied between rear left and rear right injured paws at 1 mg/kg, ip injection after 60 mins in presence of AM-630 by KWB test; type: functional, organism-based
[15] = Induction of extracellular matrix production in human NHAC-kn cells assessed as HYP level at 7.5 uM after 1 day by UV-visible spectrophotometer analysis (reference value: 9.9 +/- 0.3 ug); type: functional
Cannabinoid receptor 2 [16] = molecular target: T1, Cannabinoid receptor 2; test: Antagonist activity at TNF-alpha induced CB2R in human HC-OA cells assessed as decreased in IL-1beta mRNA production preincubated for 1 hr followed by TNF-alpha stimulation measured after 5 hrs in presence of AM-630 by RT-PCR analysis; type: cell-based
[17] = Induction of extracellular matrix production in human NHAC-kn cells assessed as sGAG/HYP level at 7.5 uM after 7 days by UV-visible spectrophotometer analysis (reference value: 0.8 +/- 0.2 ug); type: functional
[18] = Cytotoxicity against human NHAC-kn assessed as reduction in cell viability at 7.5 uM after 1 day by Neutral red dye-based UV-visible spectrophotometer analysis (reference value: 46 +/- 6%); type: functional
[19] = Induction of extracellular matrix production in human NHAC-kn cells assessed as sGAG level at 7.5 uM after 14 days by UV-visible spectrophotometer analysis (reference value: 12.0 +/- 0.4 ug); type: functional
Cannabinoid receptor 2 [20] = molecular target: T1, Cannabinoid receptor 2; test: Antagonist activity at TNF-alpha induced CB2R in human HC-OA cells assessed as decreased in IL-1beta mRNA production preincubated for 1 hr followed by TNF-alpha stimulation measured after 5 hrs by RT-PCR analysis; type: cell-based
[21] = Induction of extracellular matrix production in human NHAC-kn cells assessed as sGAG level at 7.5 uM after 1 day by UV-visible spectrophotometer analysis (reference value: 9.3 +/- 0.2 ug); type: functional
[22] = Cytotoxicity against human NHAC-kn assessed as reduction in cell viability at 7.5 uM after 14 days by Neutral red dye-based UV-visible spectrophotometer analysis (reference value: 100 +/- 11%); type: functional
[23] = Lipophilicity, log P of the compound by UV-vis spectra analysis; type: physicochemical; conditions: octanol/water
Rattus norvegicus [24] = test: Analgesic activity in MIA induced Wistar rat assessed as differences in forces applied between rear left and rear right injured paws at 1 mg/kg, ip injection after 60 mins by KWB test; type: functional, organism-based
[25] = Cytotoxicity against human NHAC-kn assessed as reduction in cell viability at 7.5 uM after 7 days by Neutral red dye-based UV-visible spectrophotometer analysis (reference value: 73 +/- 8%); type: functional
[26] = Ionization Constants, pKa of the compound by UV-vis spectra analysis; type: physicochemical
Homo sapiens = species: Homo sapiens; test: Selectivity index, ratio of Ki for recombinant human CB1R expressed in HEK293 cell membranes to Ki for recombinant human CB2R expressed in HEK293 cell membranes; type: cell-based

T1 sequence (P34972 whole entry): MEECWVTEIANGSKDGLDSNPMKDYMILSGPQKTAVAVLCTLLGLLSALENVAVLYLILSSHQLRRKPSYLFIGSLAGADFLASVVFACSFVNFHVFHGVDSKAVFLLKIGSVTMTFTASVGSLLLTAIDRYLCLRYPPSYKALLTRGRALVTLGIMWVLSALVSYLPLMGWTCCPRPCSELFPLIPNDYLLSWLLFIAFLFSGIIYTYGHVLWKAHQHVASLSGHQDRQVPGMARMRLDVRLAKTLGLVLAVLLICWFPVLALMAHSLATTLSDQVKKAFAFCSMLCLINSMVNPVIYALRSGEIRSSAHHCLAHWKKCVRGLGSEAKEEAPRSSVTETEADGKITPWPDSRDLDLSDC
Sequence of Cannabinoid receptor 1 (P21554 whole entry): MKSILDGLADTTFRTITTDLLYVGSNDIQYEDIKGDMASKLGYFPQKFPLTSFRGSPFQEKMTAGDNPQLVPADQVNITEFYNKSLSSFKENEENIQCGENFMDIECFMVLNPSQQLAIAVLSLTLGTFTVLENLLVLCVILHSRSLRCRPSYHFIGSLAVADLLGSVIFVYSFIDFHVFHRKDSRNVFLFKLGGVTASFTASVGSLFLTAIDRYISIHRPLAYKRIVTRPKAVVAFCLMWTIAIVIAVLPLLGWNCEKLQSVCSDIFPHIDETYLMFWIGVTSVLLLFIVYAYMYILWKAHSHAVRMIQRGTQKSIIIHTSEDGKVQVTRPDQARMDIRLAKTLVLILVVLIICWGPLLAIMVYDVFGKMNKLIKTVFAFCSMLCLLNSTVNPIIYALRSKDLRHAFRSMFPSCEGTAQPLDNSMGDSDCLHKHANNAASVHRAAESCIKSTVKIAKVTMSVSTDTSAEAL

SMILES	IC50 (NIH3T3) [µM]	Ki (Cannabinoid receptor 1) [µM]	solubility kinetic [1] [µg/mL]	EC50 (Cannabinoid receptor 2 [2]) [µM]	Ki (Cannabinoid receptor 2 [3]) [µM]	IC50 [4] [µM]	solubility kinetic [8] [µg/mL]	EC50 (Cannabinoid receptor 2 [10]) [µM]	also measured
CC(=O)OCCCCn1c(=O)c(C(=O)NC23CC4CC(CC(C4)C2)C3)c(O)c2nn(C)cc21	25	> 1	1.3 (≈ 2.85 µM)	2.08	0.0173	7.5			
CCCCN1C(=O)C(C(=O)NC23CC4CC(CC(C4)C2)C3)=C(O)C2C1C=NN2C (stereo unspecified)	25	0.069	0.49 (≈ 1.22 µM)		0.0018	12.5	0.13 (≈ 0.325 µM)	0.11	Activity [5]: 13.9%; Activity [6]: 0.9%; Activity [7]: 12.9%; Activity (Rattus norvegicus [9]): inactive; Activity [11]: 12.6%; Activity [12]: 1%; Activity (Rattus norvegicus [13]): Active; Activity (Rattus norvegicus [14]): inactive; Activity [15]: 10.1%; Activity (Cannabinoid receptor 2 [16]): inactive; Activity [17]: 1%; Activity [18]: 51%; Activity [19]: 14.2%; Activity (Cannabinoid receptor 2 [20]): Active; Activity [21]: 8.9%; Activity [22]: 94%; logP [23]: 5.3; Activity (Rattus norvegicus [24]): Active; Activity [25]: 68%; pKa [26]: 8
CCCCCn1c(=O)c(C(=O)NC23CC4CC(CC(O)(C4)C2)C3)c(O)c2nn(CCO)cc21	7.5	0.492	15 (≈ 32.7 µM)		0.0571	2.5	9.7 (≈ 21.2 µM)		
COc1ccc(C(=O)c2c(C)n(CCN3CCOCC3)c3cc(I)ccc23)cc1				3.15					
CCCC(C)(C)c1ccc2c(c1)OC(C)(C)[C@@H]1CC=C(C)C[C@@H]21								0.391	
CCCCn1c(=O)c(C(=O)NC23CC4CC(CC(C4)C2)C3)c(O)c2nn(C)cc21	12.5	0.231	1.9 (≈ 4.77 µM)	0.37	0.0025	7.5	0.23 (≈ 0.577 µM)		logP [23]: 5.3; pKa [26]: 8.6
Cn1cc2c(n1)c(O)c(C(=O)NC13CC4CC(CC(C4)C1)C3)c(=O)n2CCCCF	12.5	0.532	0.8 (≈ 1.92 µM)	0.27	0.0021	7.5	0.6 (≈ 1.44 µM)		
CCCn1c(=O)c(C(=O)NC23CC4CC(CC(C4)C2)C3)c(O)c2nn(CCO)cc21		> 1	3.9 (≈ 9.41 µM)		0.159		3.4 (≈ 8.2 µM)		Ratio Ki (Homo sapiens): 6
CN1N=CC2C1C(O)=C(C(=O)NC13CC4CC(CC(C4)C1)C3)C(=O)N2CCCCF (stereo unspecified)	12.5	0.0393	1.5 (≈ 3.58 µM)		0.0014	12.5	0.7 (≈ 1.67 µM)	0.0219	
CCCCCn1c(=O)c(C(=O)NC23CC4CC(CC(C4)C2)C3)c(O)c2nn(CCO)cc21	7.5	0.108	0.7 (≈ 1.58 µM)	0.88	0.0048	2.5	0.38 (≈ 0.859 µM)		
